Holding throughout (experiment): inhibition of tumour cell growth, NCI panel, 48 h
Test [1] deals with A498 renal.
For test [2], the system named is OVCAR-8 ovarian.
The subject of test [3] is HT29 colon.
Test [4] concerns SNB-75 CNS.
Test [5] relates to K-562 leukemia.
Test [6] relates to RXF 393 renal.
Test [7] has as its system U251 CNS.
Test [8] relates to NCI-H460 lung.
Test [9] relates to MCF7 breast.
The subject of test [10] is DU-145 prostate.

Molecules are shown by their SMILES.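 In this assay, cells in 96-well plates receive the compound at five concentrations for 48 hours. Endpoints are linearly interpolated between the surrounding concentrations. GI50 marks 50% less growth. TGI: concentration producing complete growth inhibition.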

TGI and GI50 data for 35 compounds are collected here from PubChem BioAssay (NCI).

`CC1(C)CC(=O)C(/C(=N/NC(=S)NN)C(=O)Nc2nc3ccc([N+](=O)[O-])cc3s2)C(=O)C1`: the TGI in test [1], in test [2], in test [3], in test [4], in test [5] and in test [6] was above 100 µM throughout. Further, the TGI in test [7] and in [8] was above 100 µM in each case.

As for `COC(=O)[C@@]1(C(C)CC(=O)O)CCCCC1=O` (some centres not stated), the TGI in [1], in test [2], in test [3], in test [4], in test [5] and in test [6] was above 100 µM each time. The TGI in [7] and in test [8] was above 100 µM in each case.

On to `O=C(c1nc2ccccc2[nH]c1=O)C(O)c1ccccc1` (configuration not stated), for which the TGI in [1] was 99.6 µM; in test [2] it was above 100 µM; in test [3] it was above 100 µM; in [5], above 100 µM; in [7], above 100 µM; in [8], above 100 µM.

Consider `NC(=O)c1csc(C2OC(COP(=O)(O)CP(=O)(O)OCC3OC(n4cnc5c(N)ncnc54)C(O)C3O)C(O)C2O)n1` (configuration not stated), for which the TGI in [1], in test [2], in test [3], in [4], in test [5] and in test [7] was above 100 µM each time. Also, the TGI in test [8] is above 100 µM.

Regarding `CCCCCCCCCCCCC(Br)C(=O)NCC(N)=O` (configuration not stated), the TGI amounted to 26.7 µM in [1]; 33.6 µM in [2]; 36 µM in test [3]; 11.6 µM in test [4]; 8.52 µM in test [6]; 24.6 µM in [7]. Moreover, in [8], the TGI is 34.7 µM.

`COc1ccc(-c2cc(C(=O)Nc3ccc(C)c(C)c3)nc(NC#N)n2)cc1`: the TGI in test [1], in [2], in test [3], in test [4], in test [5] and in [6] was above 100 µM each time. Moreover, the TGI in test [7] and in test [8] was above 100 µM each time.

Turning to `CCCCC1(C)C=C/C(=C2/C(=O)O/C(=C\C(=O)O)C2=O)O1` (configuration not stated), the TGI in test [1], in [2], in test [3], in [4], in test [5] and in test [7] was above 100 µM throughout. This compound registered a TGI in test [8] above 100 µM.

For `Cc1ccc(C)c(N2C(=O)C(=O)C(c3nc4ccccc4s3)/C(=N/NC(=O)NN)C2=O)c1` (configuration not stated), the TGI in [1], in test [2], in [3], in test [4], in [6] and in [7] was above 100 µM each time. In test [8], this compound returned a TGI above 100 µM.

Regarding `CC1(c2ccccc2Cl)C(C#N)C(=O)NC(=O)C1C#N` (configuration not stated), the TGI in test [1] is above 100 µM; in test [2] it was above 100 µM; in [3], above 100 µM; in test [4], 75.4 µM; in test [5], above 100 µM; in test [6], above 100 µM. The same compound showed a TGI in [8] above 100 µM.

On to `C=C1CCC2[C@@H](CCC3[C@]2(C)CCC[C@]3(C)C(=O)OC)C1CC=O` (some centres not stated), for which the GI50 in [1] is 17.2 µM; in [5] it was 8.65 µM; in [7], 17.8 µM. Further, the TGI worked out at 31.9 µM in test [1]; 37.3 µM in [2]; 30.8 µM in test [3]; 26.6 µM in test [5]; 33.5 µM in test [7]; 31.7 µM in [8].

Regarding `COc1ccc(CCC2c3cc(OC)c(OC)cc3CCN2C)cc1OC` (configuration not stated), the TGI in [2], in test [3], in [4], in test [5], in [6] and in test [7] was above 100 µM each time. Also, the TGI in [8] was above 100 µM.

Take `COCOCC/C=C/C=O`: the TGI in test [1], in test [2], in test [3], in [4], in [5] and in [6] was above 100 µM throughout. The TGI in [7] and in test [8] was above 100 µM throughout.

Consider `O=C1Nc2ccccc2N=CC1NC(=O)C(c1ccccc1)c1ccccc1` (configuration not stated), for which the TGI in test [1], in test [2], in test [3], in test [4], in test [5] and in [6] was above 100 µM in each case. Besides, the TGI in test [7] and in test [8] was above 100 µM throughout.

In the case of `N#CC(C#N)c1ccc(C(=O)N2CCC[C@H]2CO)cc1`, the TGI in test [2], in test [3], in test [4], in [5], in test [6] and in [7] was above 100 µM in each case. In test [8], this compound gave a TGI above 100 µM.

Regarding `Nc1c([N+](=O)[O-])nc(Cl)c2nncn12`, the TGI was above 100 µM in [1]; above 100 µM in test [2]; above 100 µM in [3]; above 77.7 µM in test [4]; above 100 µM in [5]; above 100 µM in [6]. In addition, the TGI in test [7] and in test [8] was above 100 µM each time.

Turning to `COCCNC(=O)C1C(=O)C(=O)N(CCOC)C1=O` (configuration not stated), the TGI in [1], in test [2], in test [3], in test [4], in [5] and in test [6] was above 100 µM throughout. Moreover, in test [7], the TGI was above 100 µM.

As for `CC12CCC(=O)N1c1ccc([N+](=O)[O-])cc1N2` (configuration not stated), the TGI in test [1], in test [2], in [3], in test [4], in test [5] and in test [6] was above 100 µM in each case. Further, in test [7], the TGI was above 100 µM.

As to `NC(=O)NNC(=O)NC12CC3CC(CC(C3)C1)C2`, the TGI in test [1], in test [2], in test [3], in test [4], in test [5] and in test [6] was above 100 µM throughout. Moreover, the TGI in [7] and in [8] was above 100 µM each time.

For `Cc1ccc(S(=O)(=O)N/N=C(/CC(=O)c2c(C)n([O-])c3ccccc3[n+]2=O)C(=O)Nc2ccccc2C)cc1`, the TGI in test [1], in [3], in [4], in test [6], in test [7] and in test [8] was above 100 µM each time.

For the compound `O=C(O)/C=C/c1nc2ccccc2c(=O)o1`, the TGI in test [2], in test [3], in test [4], in test [5] and in test [7] was above 100 µM each time.

Take `O=C(CC1SC(=Nc2ccccc2Cl)NC1=O)Nc1ccc(Cl)cc1Cl` (configuration not stated): the TGI in [2], in test [3], in [4], in test [6], in test [7] and in test [8] was above 100 µM in each case.

As to `N#Cc1ccc(C=NC23CC4CC(CC(C4)C2)C3)cc1`, the TGI in test [1], in test [2], in test [3], in test [5], in [6] and in test [7] was above 100 µM throughout. Moreover, the TGI in test [8] was above 100 µM.

`COc1ccc(/C=C2\CCC(C)(CN(C)C)C2=O)cc1OC` (configuration not stated): the TGI in [1], in test [2], in test [3], in [4], in [5] and in test [6] was above 100 µM throughout. Besides, the TGI in test [7] and in test [8] was above 100 µM in each case.

With `CC(C)=CC(=O)N(C)C1C2CN3CCC(O2)C13` (configuration not stated), the TGI in test [1], in test [2], in [3], in [4], in test [5] and in test [6] was above 100 µM throughout. In addition, the TGI in test [7] and in [8] was above 100 µM in each case.

Regarding `Cc1ccc(NC(=O)CC2C(=O)Nc3ccccc3S2(=O)=O)c(C)c1` (configuration not stated), the TGI was found to be 31.2 µM in test [1]; 34.6 µM in [2]; 27.2 µM in test [3]; 38.6 µM in [4]; 29 µM in test [5]; 41 µM in test [6]. Moreover, the TGI in test [7] amounted to 25.8 µM; in [8], 33.8 µM.

`CCOC(=O)/C(C#N)=C(O)/C(=C\c1ccc(Br)cc1)NC(=O)c1ccccc1`: the TGI in [1], in test [2], in test [3], in test [4], in [5] and in test [7] was above 100 µM each time. For the same compound, the TGI in test [8] was above 100 µM.

Regarding `N#CC(c1ccccn1)c1nc2ccccc2[nH]1` (configuration not stated), the TGI in test [1], in [2], in test [3], in test [4], in [5] and in [7] was above 100 µM each time. In addition, the TGI in test [8] was above 100 µM.

For `COc1cc2c(cc1OC)-c1ncc3c(OC)c(OC)c(OC)cc3c1C2`, the GI50 in [9] was 4.14 µM; in [2] it was 16.3 µM; in [4], 28.9 µM; in test [5], 10.7 µM; in test [7], 15.8 µM; in test [8], 15.3 µM. For the same compound, the TGI is 18.7 µM in test [9]; 38.5 µM in test [2]; above 100 µM in [4]; above 100 µM in test [5]; 33 µM in test [7]; 61.3 µM in test [8].

`C=CNC(=O)NC(=O)CSc1nnc(-c2ccccc2NC(=O)C(F)(F)F)c(=O)[nH]1`: the TGI in test [2] was above 100 µM; in [3], above 100 µM; in [4], 0.968 µM; in [5], above 100 µM; in test [6], above 100 µM; in [7] it was above 100 µM. For the same compound, the TGI in test [8] was above 100 µM.

`O=S(=O)(/C=C/C(=C/c1ccccc1)S(=O)(=O)c1ccccc1)c1ccccc1`: the TGI was 3.08 µM in test [2]; 3.28 µM in test [3]; 3.43 µM in test [4]; 9.19 µM in test [5]; 3.19 µM in [6]; 3.27 µM in test [7]. Further, the TGI in test [8] turned out to be 3.45 µM.

For `NC(=O)C(=O)C1CCC2=C(Sc3ccccc3N2)C1=O` (configuration not stated), the TGI in [1], in [2], in [4], in test [5], in test [6] and in [7] was above 100 µM each time. Also, the TGI in [8] was above 100 µM.

With `C[N+](C)(C)CC1CCCC1=O` (configuration not stated), the TGI in [10] is 0.0951 µM; in [1], 17.7 µM; in test [2], 4.99 µM; in test [3] it was 3.34 µM; in [4], 7.98 µM; in test [5], above 100 µM. The results for the TGI in [6], in test [7] and in [8] were 5.3 µM, 29.3 µM and 38.9 µM, respectively.

Turning to `c1ccc(CCc2cccnc2)nc1`, the TGI in test [1], in test [9], in [2], in [3], in test [4] and in [5] was above 100 µM in each case. The TGI in test [6], in test [7] and in [8] was above 100 µM throughout.

Turning to `Cc1ccccc1NC(=O)C(=O)C(C#N)c1ccccc1C` (configuration not stated), the TGI was above 100 µM in [1]; above 100 µM in [2]; above 100 µM in [3]; above 100 µM in [4]; 61.5 µM in [5]; above 100 µM in test [6]. The TGI in test [7] and in test [8] was above 100 µM each time.

Regarding `O=c1[nH]cc(F)c(=O)n1C1OC(CO)C(O)C1O` (configuration not stated), the TGI in [2], in test [3], in test [4], in test [5], in test [6] and in test [7] was above 100 µM each time. The TGI in test [8] was above 100 µM.
